Inhibition data for 1 compound are collected here from ChEMBL document CHEMBL1145065, “Thalidomide metabolites and analogues. 3. Synthesis and antiangiogenic activity of the teratogenic and TNFalpha-modulatory thalidomide analogue 2-(2,6-dioxopiperidine-3-yl)phthalimidine” (2003).

The species entered for experiment [1] is Rattus norvegicus. The experiment can be described thus: Inhibition of angiogenesis (new microvessel growth) in rat aortic ring model at 100 uM in Endothelial basal medium (EBM) and Dimethylsulfoxide (DMSO). The format is functional. The settings on record: Aorta.
For experiment [2], the species on record is Rattus norvegicus. As to the kind of experiment: Inhibition of angiogenesis (new microvessel growth) in rat aortic ring model at 200 uM in Endothelial basal medium (EBM) and Dimethylsulfoxide (DMSO). Format: functional. The settings on record: Aorta.

On to `O=C1CCC(N2Cc3ccccc3C2=O)C(=O)N1` (configuration not stated), for which testing at 100 µM in the experiment listed under Rattus norvegicus [1] gave an inhibition of 30%. For the same compound, at 200 µM the inhibition in the experiment listed under Rattus norvegicus [2] was 30%.
